Series [1] deals with IL-33. To be noted: distal small intestine after DON gavage, vs control mice.
The conditions of series [2]: water and polar solvents such as methanol and acetonitrile; cited from earlier work.
Another series deals with Caco-2 cells. Put plainly: IL-33 in DON-stimulated Caco-2 cells. The series is classed as cell-based. To be noted: data not shown.
Series [3] concerns IL-33. Put plainly: systemic IL-33 measured by ELISA in mice serum. The series is classed as in vivo. To be noted: DON gavage; data not shown. In general terms: An ELISA detects its analyte on a solid surface through an enzyme-linked reagent.
Another series concerns IL-33 mRNA. To be noted: distal small intestine, 6 h after oral DON gavage 25 mg/kg, vs control mice.
The test system of series [4] is whey protein allergy response. To be noted: C3H/HeOuJ mice sensitized with low or high dose DON with or without whey; FIG. 2.

Structures are written as SMILES.

`CC1=C[C@H]2O[C@@H]3[C@H](O)C[C@](C)([C@@]2(CO)[C@H](O)C1=O)[C@]31CO1` [DON, (3α, 7α)-3,7,15-trihydroxy-12,13-epoxytrichothec-9-en-8-one]: the “IL-33 production (immunohistochemistry)” value with IL-33 [1] was “obviously increased”. Also, the solubility entry in series [2] is reported as “soluble”. Further, in the series on Caco-2 cells, the “IL-33 levels in the supernatant” value was “did not induce increased” and the “IL-33 mRNA expression levels” value is “did not induce increased”. Besides, in the series on IL-33 [3], the “systemic IL-33 in serum” value is reported as “neither affected”. Also, the “IL-33 mRNA expression” value in the series with IL-33 mRNA was “increase”. In series [4], the “whey protein allergy response (ear swelling)” value is “significantly increases”.
